Like-named read-outs stand apart in the source and are kept apart here.
Legend:
[1] = in vitro; conditions: rhesus monkey
[2] = test system: MCF-7; test: cells; conditions: Homo sapiens, MCF7, 72 h, read-out: IC50 (μM) MCF-7, MCF-7 breast carcinoma cells; mean of three independent experiments; 72 h incubation
Procedure: (§1) The results were used to plot a dose–response curve, from which the concentrations of the tested samples required to kill half of the cell population (IC50) were determined. In addition, cytotoxic activities were expressed as the mean IC50 calculated from three independent experiments.
(§2) The cytotoxic potentials of the newly synthesized compounds was carried out at the Regional Center for Mycology and Biotechnology at Al-Azhar University, Cairo, Egypt. Cells were purchased from the Egyptian Holding Company for Biological Products and Vaccines (VACSERA, Giza, Egypt) and kept in a tissue culture unit. Cells were grown in Roswell Park Memorial Institute (RPMI)-1640 medium supplemented with 10% heat-inactivated fetal bovine serum (FBS), 50 units/mL penicillin, and 50 mg/mL streptomycin, and maintained in a humidified atmosphere containing 5% CO2 [11, 25]. Cells were maintained as monolayer cultures using serial subculture. Cell culture reagents were obtained from Lonza (Basel, Switzerland). The anticancer activities of the rest of the compounds were evaluated in MCF-7 (breast cancer) cells. In addition, the sulforhodamine B (SRB) assay method, as described previously in [39, 40], was used to determine cytotoxicity. Exponentially growing cells were collected using 0.25% trypsin–EDTA and seeded in 96-well plates at 1000–2000 cells/well in RBMI-1640 supplemented medium. After 24 h, cells were incubated for 72 h with various concentrations of the compounds tested. Following 72 h of incubation, the cells were fixed with 10% trichloroacetic acid for 1 h at 4 °C. Wells were stained for 10 min at room temperature with 0.4% sulforhodamine B (SRBC) dissolved in 1% acetic acid. Plates were air-dried for 24 h, and the dye was solubilized with Tris–HCl for 5 min on a shaker at 1600 rpm. The optical density (OD) of each well was measured spectrophotometrically at 564 nm using an ELISA microplate reader (ChroMate-4300, Palm City, FL, USA). IC50 values were calculated using a Boltzmann sigmoidal concentration–response curve using non-linear regression fitting models (Graph Pad, Prism Version 9, GraphPad Software, San Diego, CA, USA).

[3] = test system: MCF-7; conditions: for IC50: read-out: IC50 (μM) MCF-7, MCF-7 breast carcinoma cells, mean of three independent experiments, 72 h incubation
Procedure: as §1, §2

Row | SMILES | CC50 at 72 h [1] [µM] | IC50 [2] [µM] | melting point [°C] | IC50 [3] [µM] | SI Values (CC50/IC50) [3]
1 | C/C(=N\N=c1/sc(/N=N/c2ccc(C)cc2)c(C)n1N)c1cccs1 [4b] | 176 ± 18.2 | 10.2 ± 0.8 | – | – | –
2 | C/C(=N\N=c1/scc(-c2ccccc2)n1N)c1cccs1 [11a] | – | 21 ± 0.7 | 166 to 168 | – | –
3 | N.N.[Cl][Pt][Cl] [Cisplatin, cisplatin, reference compound] | – | – | – | 13.3 ± 0.61 | –
4 | C/C(=N\N=c1/sc(/N=N/c2ccccc2)c(C)n1N)c1cccs1 [4a] | 183 ± 21.3 | 16.3 ± 1 | – | – | 11.23
5 | CC(=O)c1sc(=NN=C(C)c2cccs2)n(N)c1C [13a, 1-[3-Amino-4-methyl-2-((1-(thiophen-2-yl)ethylidene)hydrazineylidene]-2,3-dihydrothiazol-5-yl)ethan-1-one] | 163 ± 19.1 | 11.5 ± 0.8 | – | – | 14.14
6 | C/C(=N\N=c1/scc(-c2ccc(C)cc2)n1N)c1cccs1 [11b] | 231 ± 25 | 17.9 ± 0.8 | – | – | 12.93
7 | C/C(=N\N=c1/scc(-c2ccc([N+](=O)[O-])cc2)n1N)c1cccs1 [11d] | – | > 38 | 194 to 196 | 54.8 ± 1.6 | –
8 | CC(=NN=C1SC(=NNc2ccc(Cl)cc2)C(=O)N1N)c1cccs1 [8b, 3-Amino-5-(2-(4-chlorophenyl)hydrazineylidene)-2-[(1-(thiophen-2-yl)ethylidene) hydrazineylidene]thiazolidin-4-one] | – | 23.7 ± 1.6 | 177 to 179 | – | –
9 | CCOC(=O)c1s/c(=N\N=C(/C)c2cccs2)n(N)c1C [13b] | 135 ± 9.58 | 16.3 ± 1.4 | – | – | 8.29
10 | C/C(=N\N=c1/sc(/N=N/c2ccc(Cl)cc2Cl)c(C)n1N)c1cccs1 [4d] | – | 19.8 ± 0.9 | 227 to 229 | – | –
11 | CC(=NN=C1SC(=NNc2ccc(C)cc2)C(=O)N1N)c1cccs1 [8a, 3-Amino-2-[(1-(thiophen-2-yl)ethylidene)hydrazineylidene]-5-(2-(p-tolyl)hydrazineylidene) thiazolidin-4-one] | 149 ± 15.9 | 13.6 ± 0.9 | – | – | 10.99
12 | C/C(=N\N=c1/sc(/N=N/c2ccc(Cl)cc2)c(C)n1N)c1cccs1 [4c] | – | 19.7 ± 1.3 | 205 to 207 | – | –
13 | C/C(=N\N=c1/scc(-c2ccc(Cl)cc2)n1N)c1cccs1 [11c] | – | > 38 | 180 to 182 | 38.2 ± 1.4 | –
